ChEMBL document CHEMBL1135868, “Small ligands interacting with the phosphotyrosine binding pocket of the Src SH2 protein” (Bioorg Med Chem Lett, 2002)

molecular target: Proto-oncogene tyrosine-protein kinase Src (Homo sapiens, UniProt P12931); assay: The compound was evaluated for its binding affinity towards phosphotyrosine binding pocket of Src protein tyrosine kinase SH2 domain
Sequence (P12931 2-536 limits assumed): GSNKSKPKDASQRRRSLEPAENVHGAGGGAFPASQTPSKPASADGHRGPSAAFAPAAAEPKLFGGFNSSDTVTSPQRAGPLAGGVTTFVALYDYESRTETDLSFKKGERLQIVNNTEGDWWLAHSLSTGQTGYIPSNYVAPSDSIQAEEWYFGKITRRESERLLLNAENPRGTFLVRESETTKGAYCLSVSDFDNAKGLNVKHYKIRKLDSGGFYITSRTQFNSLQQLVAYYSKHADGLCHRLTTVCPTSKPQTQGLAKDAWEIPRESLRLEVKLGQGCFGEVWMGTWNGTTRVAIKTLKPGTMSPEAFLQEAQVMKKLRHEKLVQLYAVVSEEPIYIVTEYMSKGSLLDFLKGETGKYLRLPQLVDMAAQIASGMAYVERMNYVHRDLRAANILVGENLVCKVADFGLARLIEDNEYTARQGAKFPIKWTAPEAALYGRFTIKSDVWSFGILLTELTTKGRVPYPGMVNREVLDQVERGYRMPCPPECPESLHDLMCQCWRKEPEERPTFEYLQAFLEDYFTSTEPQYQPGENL

Row | IC50 | Compound
1 | 4 mM | COc1ccc(OP(=O)(O)O)cc1
2 | 2 mM | Cc1ccc(OP(=O)(O)O)cc1
3 | 1.2 mM | O=P(O)(O)Oc1ccc(SC(F)(F)F)cc1
4 | 3.2 mM | COC(=O)c1cc2ccccc2cc1OP(=O)(O)O
5 | > 5 mM | CCc1ccc(NC(=O)P(=O)(O)OCc2ccccc2)cc1
6 | 0.8 mM | O=C(Nc1ccc(OCc2ccccc2)cc1)P(=O)(O)O
7 | 1 mM | O=P(O)(O)Oc1cccc2ccccc12
8 | 3.9 mM | CCCCOc1ccc(NC(=O)P(=O)(O)O)cc1
9 | 4 mM | CC(C)(C)c1ccc(OP(=O)(O)O)cc1
10 | 2.1 mM | COc1cc(NC(=O)P(=O)(O)O)cc(OC)c1OC
11 | 3.6 mM | CCOC(=O)c1ccc(NC(=O)P(=O)(O)O)cc1
12 | 4 mM | O=C(Nc1ccccc1OC(F)(F)F)P(=O)(O)O
13 | > 10 mM | Cc1cccc(C)c1OP(=O)(O)O
14 | 3.5 mM | O=P(O)(O)Oc1ccccc1Cl
15 | 0.5 mM | O=Cc1cccc(C=O)c1OP(=O)(O)O
16 | 4 mM | COC(=O)c1ccc(OP(=O)(O)O)cc1
17 | > 10 mM | O=P(O)(O)Oc1cccc2cccnc12
18 | 3.5 mM | CC(=O)c1ccc2ccccc2c1OP(=O)(O)O
19 | 0.2 mM | O=Cc1ccccc1OP(=O)(O)O
20 | 2.4 mM | O=Cc1cccc(OP(=O)(O)O)c1
21 | 4 mM | Cc1cccc(OP(=O)(O)O)c1
22 | 2 mM | O=C(O)c1ccccc1OP(=O)(O)O [FOSFOSAL]
23 | > 5 mM | O=C(NCCc1ccccc1)P(=O)(O)O [PHENETHYLCARBAMOYLPHOSPHONIC ACID]
24 | 1 mM | O=[N+]([O-])c1ccc(OP(=O)(O)O)cc1 [p-NITROPHENYLPHOSPHATE]

Row | Compound | IC50
25 | COP(=O)(O)Oc1ccccc1C=O | 3.3 mM
26 | COC(=O)c1cccc(OP(=O)(O)O)c1 | 4 mM
27 | CC(C)c1ccc(C(O)P(=O)(O)O)cc1 (stereo not drawn) | > 10 mM
28 | COc1ccccc1C(O)P(=O)(O)O (stereo not drawn) | > 10 mM
29 | CCCOc1ccc(C(O)P(=O)(O)O)cc1 (stereo not drawn) | 2.4 mM
30 | O=P(O)(O)Oc1ccc2ccccc2c1 | 1 mM
31 | O=P(O)(O)C(O)c1ccc2ccccc2c1 (stereo not drawn) | 4.4 mM
32 | O=P(O)(O)C(O)C1CCCCC1 (stereo not drawn) | > 10 mM
33 | CC(C)OP(=O)(O)Oc1ccccc1C=O | 2.1 mM
34 | O=P(O)(O)C(O)c1ccc(-c2ccccc2)cc1 (stereo not drawn) | > 10 mM
35 | Nc1ccc(OP(=O)(O)O)cc1 | 0.6 mM
36 | O=C(NCc1ccccc1)P(=O)(O)O [(BENZYLAMINO)CARBONYLPHOSPHONIC ACID] | 4.4 mM
37 | O=P(O)(O)C(O)c1ccccc1 (stereo not drawn) [ALPHA HYDROXY BENZYLPHOSPHONATE] | > 10 mM
38 | O=P(O)(O)Oc1ccccc1 [PHENYL DIHYDROGEN PHOSPHATE] | 2.5 mM
